This is an account of results in patent US5646146A, “Heterocyclic compounds and their preparation and use” (Novo Nordisk A/S, priority 1993, dated 1997).

The subject of assay [1] is glycine site coupled to the NMDA ionophore complex. Particulars: literature citations; cited from earlier work.
Assay [2] deals with T1, glycine site of the NMDA receptor complex (Rattus norvegicus, UniProt P35439).
T1 construct: Crude synaptic (P2) membranes are prepared from rat forebrains; from tissue; host or cells: rat forebrain (male Wistar), crude synaptic (P2) membranes, Triton X-100 washed
As to the kind of experiment: In vitro [3H]-glycine binding to rat brain membranes (Test 1). The settings on record: 50% displacement of specific [3H]-glycine binding; 50 nM [3H]-glycine, 4° C., 30 min. The arrangement: species or system rat (male Wistar). The method, then:
The compounds according to the invention were tested as regards the affinity for one or more of the different types of excitatory amino acid receptors and studied in simple radioligand binding experiments. In essence, the method involves incubation of a particular selected radio-labelled ligand and the particular specific substance to be investigated with brain homogenates which contain the receptor. Measurement of receptor occupancy is made by determination of the specific radioactivity bound to the homogenate.
This will make them useful in the treatment of any of the numerous indications caused by hyperactivity of excitatory amino acids.
The glycine site binding activity of these compounds of the present invention can be illustrated by determining their capability for displacing radioactively labelled glycine from the glycine site.
The displacement activity of the compounds may be shown by determining the IC50 value which represents the concentration (μM) which causes a displacement of 50% of the specific binding of [^3 H]-glycine.
In vitro [^3 H]-Glycine Binding to Rat Brain Membranes (Test 1)
The membrane preparation and assay of specific [^3 H]-glycine binding is based upon methodology described by Haring et al. (1991) J. Neurochem. 57, 323-332 and Yoneda et al. (1991) J. Neurochem. 55, 237-244.
All steps are performed at 4° C. Buffers are prepared fresh each week from distilled, deionized water and filtered through sterile 0.2 μm membranes to eliminate artifacts due to microbial contamination. Crude synaptic (P2) membranes are prepared from rat forebrains freshly dissected from male Wistar rats and washed 4 times with low ionic strength buffer. On the day of the assay these preparations are additionally washed with buffer containing a low concentration (0.08% g/g) of Triton X-100, and then twice more in the absence of this detergent. The procedure is aimed at the disruption of synaptic membrane vesicles and removal of endogenous amino acids.
Specific radioligand binding is measured by incubating membranes (400-600 μg/ml of protein) with 50 nM [^3 H]-glycine in the presence or absence of 1 mM of unlabelled glycine at 4° C. for 30 min. Free and bound ligand are separated by centrifugation. Each pellet is rinsed 2× and bound radioactivity measured by liquid scintillation counting. Test substances are substituted for Unlabelled glycine in the assay.

Assay [3] deals with convulsions induced by i.c.v. infusion of NMDA. As to the kind of experiment: Convulsions induced by i.c.v. infusion of NMDA, TV50 (Test 2). It is filed as in vivo, mouse (male NMRI). The settings on record: dose infused i.c.v. per minute with NMDA to increase time to onset of clonic seizures by 50%. On the procedure: The glycine antagonists are co-infused with NMDA and their anti-convulsive effect is measured by determining a) the TV50 value which represents the dose (μg/kg) of the glycine antagonist that has to be infused per minute in order to increase time to onset of clonic seizures by 50%, b) the ED50 value which represents the dose (μg/kg) of the glycine antagonist that has to be infused per minute in order to protect 50% of the animals against clonic seizures for 150 seconds after the start of i.c.v. infusion.
Convulsions induced by i.c.v. infusion of NMDA (Test 2 & 3)
58.84 μg/ml (1 nmol in 2.5 μl) of NMDA (Sigma) dissolved in 0.9% NaCl is co-infused i.c.v. with a glycine antagonist at a speed of 5 μl/min. Infusion is performed through a cannula placed 1 mm posterior and 1 mm lateral to the Bregma point. The cannula is injected 4.3 mm into the skull of male NMRI mice weighing 25 g (range 23-27 g). Placement and length of the cannula into the skull is fixed by a plate positioned 4.3 mm from the point of the cannula. The infusion is stopped after the appearance of clonic seizures in all extremities or 150 seconds after the start time of the infusion. At least 5 doses of each glycine antagonist are tested using 8 mice per dose.

What is called IC50 is the concentration that inhibits the measured activity by half. High values mean a need for much substance, low ones inhibition by little substance.

Take `N[C@H](CO)C(=O)O` [D-serine]: in assay [1], the “activity at the glycine site (agonist/antagonist, in words)” value (from here on “activity … (agonist/antagonist, in words)”) was “strong agonist activity”.

In the case of `C[C@@H](N)C(=O)O` [D-alanine], the “activity … (agonist/antagonist, in words)” value in assay [1] was “strong agonist activity”.

On to `O=c1cnc2c([nH]1)-c1ccccc1C21OCCO1` [Example 6, 9H-Indeno[1,2-b]pyrazine-3,9(4H)-dione 9-ethylene acetal], for which the IC50 in assay [2] was determined as 3700 nM.

Take `NC1CCN(O)C1=O` (stereo not shown) [HA-966, 3-amino-1-hydroxy-2-pyrrolidone]: the “activity … (agonist/antagonist, in words)” value in assay [1] is listed as “weak antagonists”.

In assay [2], `O=C1c2ccccc2-c2[nH]c(=O)c(=O)[nH]c21` [Example 2, 9H-Indeno[1,2-b]pyrazine-2,3,9(1H,4H)-trione] returned an IC50 of 920 nM. In assay [3], the “Test 2 TV50” value is 44 µg/kg.

In the case of `O=C(O)c1cc(O)c2ccc(Cl)cc2n1` [Example 7-Cl-Kyn, 7-chloro-kynurenic acid], the “activity … (agonist/antagonist, in words)” value in assay [1] was “quite strong antagonists”.

As for `N[C@@H]1CONC1=O` [D-cycloserine], in assay [1], the “activity … (agonist/antagonist, in words)” value is “partial agonists”.

For `CN1CCN(C2c3ccccc3-c3[nH]c(=O)c(=O)[nH]c32)CC1` (stereo not shown) [Example 18, 9-(4-Methyl-1-piperazinyl)-9H-indeno[1,2-b]pyrazine-2,3(1H,4H)-dione], in assay [2], the IC50 stood at 150 nM. For the same compound, in assay [3], the “Test 2 TV50” value stood at 4.5 µg/kg.

Consider `N#Cc1cc2[nH]c(=O)c(=O)[nH]c2cc1[N+](=O)[O-]` [CNQX, 6-cyano-7-nitroquinoxaline-2,3-dione], for which the “activity … (agonist/antagonist, in words)” value in assay [1] is recorded as “weak antagonists”.

On to `O=c1[nH]c2c([nH]c1=O)C(O)c1ccccc1-2` (stereo not shown) [Example 11, 9-Hydroxy-9H-indeno[1,2-b]pyrazine-2,3(1H,4H) -dione], for which the IC50 in assay [2] was found to be 920 nM. Besides, in assay [3], the “Test 2 TV50” value is 5.0 µg/kg.
